row,melting point [°C],SMILES
1,179 to 180,"CCc1nc2c(-c3cc4c(c(Br)c3C)OCC4)ncnc2n1C(C1CC1)C1CC1 [Example 5232, 6-(7-bromo-6-methyl-2,3-dihydrobenzofuran-5-yl)-9-dicyclopropylmethyl-8-ethylpurine]"
2,99 to 100,"CCCCC(CC)n1c(CC)nc2c(-c3c(C)cc(C)cc3C)ncnc21 (stereo not drawn) [Example 2, 8-Ethyl-9-(1-ethylpentyl)-6-(2,4,6-trimethylphenyl)purine]"
3,147 to 148,"CCc1nc2c(-c3cc4c(cc3C)OCC4)ncnc2n1C(C1CC1)C1CC1 [Example 5001, 9-Dicyclopropylmethyl-8-ethyl-6-(6-methyl-2,3-dihydrobenzofuran-5-yl)purine]"

# Continued, compound first:
row,SMILES,melting point [°C]
1,"CCc1nc2c(-c3cc4cc(Br)oc4cc3C)ncnc2n1C(C1CC1)C1CC1 [Example 5231, 6-(2-bromo-6-methylbenzofuran-5-yl)-9-dicyclopropylmethyl-8-ethylpurine]",177 to 178
2,"CCc1nc2c(-c3cc4ccoc4cc3C)ncnc2n1C(C1CC1)C1CC1 [Example 5201, 9-dicyclopropylmethyl-8-ethyl-6-(6-methylbenzofuran-5-yl)purine]",139 to 141
3,"CCc1nc2c(-c3ccc(OC)cc3Cl)ncnc2n1C(C1CC1)C1CC1 [Example 831, 6-(2-Chloro-4-methoxyphenyl)-9-dicyclopropylmethyl-8-ethylpurine]",139 to 140
